Experiment: not given
Settings: 0.01 N; cited from earlier work

With `[K+].[OH-]` [KOH, potassium hydroxide] as the compound, how does the pH read?
The pH was 12.0.

For `[Na+].[OH-]` [NaOH, sodium hydroxide], which pH is on record?
The pH was 12.0.

Same assay, conditions: 1.0 N aqueous solutions; cited from earlier work

With `[K+].[OH-]` [KOH, potassium hydroxide] as the compound, how does the pH read?
Its pH is 14.0.

Which pH does the source give for `[Na+].[OH-]` [NaOH, sodium hydroxide] here?
Its pH is 14.0.

Experiment: Water solubility / appearance and pH of solution on mixing, dilution and standing
Format: physicochemical
Settings: TEPA 2.0 g in water 94.0 g
Source text: In Example 1 (within the scope of the invention), when LAS acid was neutralized with a polyamine (i.e., TEPA), it formed PAAS. As PAAS began forming, the solution became hazy. Upon further addition of the LAS acid, the hazy solution became a dispersion. Upon standing for hours, the dispersion formed a layer of sediment at the bottom of the beaker. Even a very diluted formulation (such as below 0.1%) was hazy.
The solution was clear at the all time over the entire pH range, leading to the conclusion that Na-LAS was fully ionized or disassociated.
Sodium xylenesulfonate was added to an aqueous PAAS dispersion to attempt to solubilize PAAS by ion-exchange and/or hydrotrope mechanism.
Example 1 was repeated, except that fatty acid was used in place of LAS acid. […]
This example investigated the solubilization of PAAS in water, with the aid of a solubiliser. A dispersion of PAAS (with LAS and fatty acid as conjugated acid) was mixed with Na-LES solution (59.5% Na-LES, 10% propylene glycol, 6.5% ethanol, and balance of water). […]

Which Observations does the source give for `NCCNCCNCCNCCN` [TEPA, Tetraethylenepentamine] here?
The Observations was “Clear”.

Experiment: not given
Settings: * from Huntsman Technical Bulletin "Amine applications and properties data applications"; cited from earlier work

Which pKa does the source give for `NCCN` [Ethylenediamine (EDA), Ethylenediamine] here?
Its pKa is 9.90*.

With `NCCNCCNCCN` [Triethylenetetramine (TETA), Triethylenetetramine] as the compound, how does the pKa read?
The pKa was 9.80*.

Same assay, conditions: according to McMurry, Organic Chemistry, p. 45, 1984; cited from earlier work

With ethoxide CH3CH2O^- as the compound, how does the pKa read?
The pKa was 16.

Same assay, conditions: from CRC Handbook of Chemistry and Physics, 83rd Edition; cited from earlier work

For `CC(N)(O)CN` (centres unmarked) [1,2-diamino-2-propanol], which pKa1 is on record?
The pKa1 was 9.69.

And the pKa2?
Its pKa2 is 7.93.

What does the source list for `CC(N)CN` (centres unmarked) [1,2-propanediamine]?
pKa1: 9.82; pKa2: 6.61

Which pKa2 does the source give for `NCCCN` [1,3-propanediamine] here?
Its pKa2 is 8.88.

With `NCCCCN` [1,4-Butanediamine] as the compound, how does the pKa read?
Its pKa is 10.80.

With `NCCCCCN` [1,5-pentanediamine] as the compound, how does the pKa1 read?
Its pKa1 is 10.25.

What about the pKa2 of the same compound?
The pKa2 was 9.13.

Which pKa1 does the source give for `NCCCCCCN` [1,6-Hexanediamine] here?
The pKa1 was 11.86.

And the pKa2?
The pKa2 was 10.76.

For `CC(C)(C)CN` [2,2-dimethylpropylamine], which pKa is on record?
The pKa was 10.15.

For `COCCN` [2-mthyloxyethylamine], which pKa is on record?
Its pKa is 9.40.

Which pKa does the source give for `NC1CCCCC1` [Cyclohexylamine] here?
The pKa was 10.64.

What does the source list for `NCCN` [Ethylenediamine (EDA), Ethylenediamine]?
pKa1: 9.92; pKa2: 6.82

With `CNO` [Methylhydroxylamine] as the compound, how does the pKa read?
Its pKa is 12.50.

Which pKa1 does the source give for `CN(C)CCN(C)C` [N,N,N',N'-Tetramethyl1,2-ethanediamine] here?
Its pKa1 is 10.40.

What about the pKa2 of the same compound?
Its pKa2 is 8.26.

— EP1664254B9, “LIQUID LAUNDRY DETERGENT WITH POLYANIONIC AMMONIUM SURFACTANT” (priority 2003, dated 2005)
